In experiment [1] the test system is primary mouse keratinocytes (1° MK). Put plainly: UVB-evoked Ca++ signaling in primary mouse keratinocytes (fluo-4). In kind it is cell-based. As to conditions: for ET1-augmented UVB-induced Ca++ transients: co-exposure to ET1; for UVB-evoked Ca++ signal: GSK205 20 μM. The protocol: Ca++ imaging of 1° MK was conducted following routine procedures. For UVB stimulation, a customized device was built. The system comprised a printed circuit board for electrical interconnects and mechanical support and an ultraviolet light-emitting diode (UV LED).
The operating wavelength was 295 nm (FIG. 2A), with a full-width half-max of 12 nm. The optical power was 500 mW. The focal point was aimed at the plane of the upper surface of the quartz coverslip, which was used to minimize UV absorption along the optical path towards the cells (FIG. 2A-C). The optical intensity at the focal point was estimated to be 150 mW/mm^2.
(§1) Ca++ imaging of mouse 1° MK in response to chemical activation of TRPV4 was conducted after loading with 2 μM fura2-AM, following a ratiometric Ca2+ imaging protocol with 340/380 nm […] for dual excitation. Ratios of emissions were acquired at 0.5 Hz. ΔR/R0 was determined as the fraction of the increase of a given ratio over baseline ratio, divided by baseline ratio. For stimulation of cells with UVB, where fura-2 was not suitable because of the proximity of stimulation with 340/380 nm and 295 nm, 2 μM fluo4-AM was used instead. Ca++ imaging was carried out at 488 nm excitation, acquisition of emissions at 0.5 Hz, expressed as ΔF/F0. In the custom-built UV optical system, UV LEDs were capped with a ball lens, a transparent optical window in the shape of a hemispherical lens (FIG. 2B). The LED output optical beam focused at 15-20 mm from the lens, with a spot diameter of approximately 1.5-2.0 mm (FIG. 2C). […] The thermal equilibration stage was set for physiological temperature.

Experiment [2] has the same test system. The experiment can be described thus: ET1 secretion by non-stimulated primary mouse keratinocytes (ELISA). In kind it is cell-based. On the procedure: FIGS. 8A-8D: Central role for KC TRPV4 in UVB-evoked Ca^++ signaling and nocifensive behavior—ET1-related supplementary findings. (FIG. 8A) Augmentation of GSK101-evoked Ca^++ signaling by ET1. Shown are averaged Ca^++ measurements (fura-2) in response to 5 nM GSK101. Note the increase in signal in response to co-exposure to ET1. (FIG. 8B) ET1 secretion by non-stimulated 1° MK depends on TRPV4 and PLC. Shown are relative ET1 concentrations (determined by ELISA, pg/mL; vehicle-treated and WT control normalized to 100) in supernatant of non-stimulated 1° MK. Note the clear dependence on TRPV4, as indicated by a 50% reduction in Trpv4^−/− 1° MK. […] There is also down-regulation of ET1 secretion by a specific inhibitor of PLC (U73122), and by an ET-convertase inhibitor, CGS35066, which served as a control compound. In addition, PLC-inhibitor robustly affects ET1 secretion in WT and Trpv4^−/− 1° MK. (FIG. 8C) ET1 expression by UVB-exposed 1° MK depends on TRPV4 and PLC—immunocytochemistry. Shown is specific ET1 immunolabeling in 1° MK, exposed to UVB using the UVB-LEDs, as for Ca^++ imaging. Use of the UVB-LED device precluded application of a ET1 ELISA, only irradiated cells could be examined. […] (FIG. 8D) ET1 expression by UVB-exposed 1° MK depends on TRPV4 and PLC—quantification of immunocytochemistry.
(In an ELISA, binding on a coated surface is turned into a signal by an enzyme label.)

The test system is the same in experiment [3]. Put plainly: ET1 immunocytochemistry in UVB-exposed primary mouse keratinocytes. In kind it is cell-based. The following applies: 295 nm UVB-LED. The protocol:
1° MK were exposed to UVB using the UV optical system (295 nm LED). 24 hours later the cells were fixed and fluorescently immunolabeled for ET1. Digital images were captured and subjected to morphometry.
Mouse keratinocytes were cultured on collagen coated quartz coverslips and then stimulated from the bottom using the previously mentioned UV optical system using the 295 nm LED. 24 hours later the cells were fixed in 4% formaldehyde in PBS for 20 minutes, permeabilized with 0.1% Triton X-100 in PBS for 10 minutes, washed, then blocked in 10% normal goat serum in PBS for 45 minutes. Coverslips were incubated overnight with primary antibody mouse anti-ET1 (1:200; Abcam), washed three times in PBS and incubated with secondary antibody for 2 hours at 25° C. Coverslips were washed three times in PBS, once with double-distilled H2O. Digital images were captured using a 40× immersion lens on the BX61 Olympus upright microscope. Morphometric analysis was conducted using ImageJ freeware with tailored regions-of-interest.

In experiment [4] the target is T1, TRPV4 (rat) (Rattus norvegicus, UniProt Q9ERZ8).
T1 construct: expressed in transfected cells; host or cells: N2a (mouse neuroblastoma) cells
The experiment can be described thus: Ca++ imaging in N2a cells with directed expression of TRPV4, activation with GSK101. In kind it is cell-based. From the text:
FIGS. 26A-26B: Assessment of compounds in N2a cells with directed expression of TRPV4. […] The number on each bar corresponds to average peak ΔCa++ concentrations in ≈100 cells. […] Plot generated from averaged peak ΔCa++ concentration of 75 cells per data-point.

Experiment [5] addresses TRPV4 (Homo sapiens, UniProt Q9HBA0). The experiment can be described thus: TRPV4-mediated calcium influx in N2a cells with targeted expression of human TRPV4. In kind it is cell-based. Set-up: expressed in transfected cells; host or cells: N2a cells. The following applies: 2.5 μM inhibitor, pre-incubation 10 min, 10 nM GSK101.
Experiment [6] has as its system Trpv4−/− mice, whisker-pad injection of formalin. Put plainly: Formalin-evoked trigeminal irritant pain, systemic (i.p.) compound, Trpv4−/− mice. In kind it is in vivo, mouse. The following applies: 25 mg/kg i.p. The protocol: FIGS. 31A-31D: 16-8 and 16-19 effectively attenuate formalin-evoked trigeminal irritant pain. (FIG. 31A) Time-course of nocifensive behavior in WT mice following whisker-pad injection of 4% formalin. The mice were pre-injected (i.p., 10 mg/kg; 15 min before formalin) with GSK205, 16-8 or 16-19. Note effective reduction of nocifensive behavior in the late “neural” phase by compounds 16-8, 16-19, not by GSK205. (FIG. 31B) Cumulative response binned into 3 phases: acute phase (0-5 min), interphase (5-15 min), and late “neural” phase (15-45 min). […] (FIG. 31C) As in (FIG. 31A), but also including Trpv4^−/− mice. Compounds were applied i.p. 15 min before formalin challenge, at 10 mg/kg except established TRPA1 blocker, A967079 (25 mg/kg). Previously-established attenuated nocifensive behavior in early and late phase in Trpv4^−/− mice was recapped, which was reduced further by TRPA1 blocker, A967079. (FIG. 31D) As in (FIG. 31B), plus inclusion of Trpv4^−/− mice. Robust effects of TRPA1-blocker, A967079, were mimicked equi-potently by 16-8 and 16-19 for early phase, and by 16-8 for late phase, partially by 16-19 for late phase. (FIG. 31A, FIG. 31C) show averaged behavioral metrics per time-point, bars in (FIG. 31B, FIG. 31D) represent mean±SEM; for (D) *p<0.05; #P<0.005, one-way ANOVA; for all panels n=5-8 mice/group.
Compounds were tested for their effect in reducing pain using an in vivo pain model in mice. For mouse formalin-evoked irritant behavior measurements, mice were well-fed, well-rested, and tested at the same time of day, at the same time-point of their circadian rhythm. They were allowed to acclimate to a plexiglas chamber for at least 30 min before testing, and received 10 μL subcutaneous injection of 4% of formalin (diluted from an aqueous solution of commercial 37% formaldehyde with normal saline (NS)) through a 30-gauge needle into the right whiskerpad, as further detailed in Luccarini et al. (J. Pain, 2006, 7, 908-914). Normal saline was used as control injection. After injection, mice were immediately placed back into the chamber and the rubbing behavior was recorded by a private consumer-type video-camera for a 45 min observation period. The recording time was divided into 9 blocks of 5 min, and a nociceptive score was determined per block by measuring the time that the animals spent rubbing the injected area predominantly with the ipsilateral fore-paw and rarely with hind-paw. This rubbing behavior with fore-paw is evoked by pain, which is distinct from itch behavior. Behavioral analysis was conducted by observers blinded to treatment.
We observed significant residual irritant-pain behavior in all phases of the formalin model in Trpv4^−/− mice, consistent with our previous report^13 (FIG. 31C,D). […] A reference TRPA1-inhibitory compound, A967079, was used at 25 mg/kg body weight as a positive control to inhibit TRPA1, based on a previous report^38. Reduction of pain behavior in Trpv4^−/− mice was striking, more than 50% in the late neural phase. […] We conclude that compound 16-8 also functions as a potent TRPA1-inhibitor in an in-vivo irritant pain model specifically designed to assess the contribution of TRPA1 to trigeminal irritant pain, and at least as potent as an established reference TRPA1-antagonistic compound.

Experiment [7] has as its target T2, TRPV4 (Mus musculus, UniProt Q9EPK8).
T2 construct: endogenous in cells; host or cells: primary mouse epidermal keratinocytes (1° MK)
Put plainly: Ca++ transients in primary mouse keratinocytes on chemical activation of TRPV4 (GSK101, 4α-PDD). In kind it is cell-based. The following applies: 1° MK. The protocol: as §1, with “temperature. We confirmed the non-thermal nature of UVB stimulation using the customized 295 nm LED device in a dedicated experiment (FIG. 2D), thus confirming the specific modality of stimulation as UVB.” for “temperature.”

The test system of experiment [8] is WT and oil-treated iKO mice. The experiment can be described thus: Nocifensive behavior after ET1 footpad injection (von Frey). In kind it is in vivo, mouse. As to conditions: 10 μL 100 nM ET-1 intraplantar. The protocol:
ET1 injections: After determining base-line withdrawal thresholds, each animal received an intraplantar injection of 10 μL 100 nM ET-1 plus contralateral vehicle. Thresholds were again evaluated 1 hour after injection.
Hindpaw mechanical withdrawal thresholds were determined by the automated von Frey hair method, using a 0.5 mm diameter stainless steel filament, part of an automated plantar touch stimulator (Ugo Basile, Modena, Italy). Relevant detail included pre-test acclimatization in a quiet room for 30 min, conducting the test at the same time of day and blinded observers. The stimulus was delivered to the hindpaw, automatically discontinued upon withdrawal, and its intensity recorded automatically. 6-8 trials per animal were conducted, with equal exposure of both hindpaws, leading to an average withdrawal threshold. Results are reported as […], which was calculated by subtracting post-treatment from pre-treatment measurements, expressed as % or relative to 1.0.

“And” between values parts separate entries of the source, which are not always exact repeats. Equal entries are not always repeated. “Also recorded” adds a separate entry of the source. Square brackets hold non-standard residues; d marks the D form. Peptide text beside a SMILES is read from it.

T1 sequence (Q9ERZ8 whole entry): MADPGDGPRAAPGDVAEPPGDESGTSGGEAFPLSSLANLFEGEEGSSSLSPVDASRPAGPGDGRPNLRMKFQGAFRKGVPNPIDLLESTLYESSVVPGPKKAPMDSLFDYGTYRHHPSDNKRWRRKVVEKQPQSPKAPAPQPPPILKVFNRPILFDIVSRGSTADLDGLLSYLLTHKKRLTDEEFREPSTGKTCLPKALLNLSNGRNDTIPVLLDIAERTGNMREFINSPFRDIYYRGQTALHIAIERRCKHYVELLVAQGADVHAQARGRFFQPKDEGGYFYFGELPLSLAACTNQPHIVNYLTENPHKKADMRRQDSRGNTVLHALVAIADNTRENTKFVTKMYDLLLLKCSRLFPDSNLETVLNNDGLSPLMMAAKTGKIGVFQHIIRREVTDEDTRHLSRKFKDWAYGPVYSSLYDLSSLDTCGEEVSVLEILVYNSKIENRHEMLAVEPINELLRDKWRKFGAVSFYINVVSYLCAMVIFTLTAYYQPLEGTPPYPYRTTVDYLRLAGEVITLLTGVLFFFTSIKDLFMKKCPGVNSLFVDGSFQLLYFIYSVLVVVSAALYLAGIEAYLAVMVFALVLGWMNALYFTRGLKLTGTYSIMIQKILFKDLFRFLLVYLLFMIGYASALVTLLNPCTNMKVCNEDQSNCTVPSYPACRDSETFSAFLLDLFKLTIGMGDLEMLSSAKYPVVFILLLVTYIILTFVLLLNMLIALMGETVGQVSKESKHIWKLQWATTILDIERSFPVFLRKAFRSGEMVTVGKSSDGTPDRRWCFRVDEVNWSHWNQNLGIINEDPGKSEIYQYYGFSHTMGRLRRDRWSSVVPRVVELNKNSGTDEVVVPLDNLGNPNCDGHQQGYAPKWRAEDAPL
T2 sequence (Q9EPK8 whole entry): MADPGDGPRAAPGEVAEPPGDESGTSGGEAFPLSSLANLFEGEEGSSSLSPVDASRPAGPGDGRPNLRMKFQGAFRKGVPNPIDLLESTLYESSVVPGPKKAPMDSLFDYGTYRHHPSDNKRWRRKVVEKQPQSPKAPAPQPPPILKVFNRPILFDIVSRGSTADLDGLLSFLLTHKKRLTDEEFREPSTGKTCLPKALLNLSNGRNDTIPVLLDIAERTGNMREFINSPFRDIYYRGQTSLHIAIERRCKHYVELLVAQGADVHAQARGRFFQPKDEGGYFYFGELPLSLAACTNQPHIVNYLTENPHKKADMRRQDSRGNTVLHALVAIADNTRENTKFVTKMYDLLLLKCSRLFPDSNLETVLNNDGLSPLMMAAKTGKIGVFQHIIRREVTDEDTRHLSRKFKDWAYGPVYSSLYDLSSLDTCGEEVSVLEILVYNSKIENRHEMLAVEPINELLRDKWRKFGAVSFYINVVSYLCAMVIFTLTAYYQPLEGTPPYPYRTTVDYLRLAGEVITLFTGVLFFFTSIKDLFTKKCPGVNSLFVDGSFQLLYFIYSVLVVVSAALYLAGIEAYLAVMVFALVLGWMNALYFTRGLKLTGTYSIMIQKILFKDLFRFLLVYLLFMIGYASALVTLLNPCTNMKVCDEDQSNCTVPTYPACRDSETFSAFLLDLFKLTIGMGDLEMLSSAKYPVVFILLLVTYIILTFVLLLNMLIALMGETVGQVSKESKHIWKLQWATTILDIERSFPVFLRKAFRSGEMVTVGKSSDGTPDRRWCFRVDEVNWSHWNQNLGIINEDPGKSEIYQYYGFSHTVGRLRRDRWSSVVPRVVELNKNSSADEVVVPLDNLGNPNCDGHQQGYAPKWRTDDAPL
Sequence of TRPV4 (Homo sapiens, UniProt Q9HBA0) (Q9HBA0 whole entry): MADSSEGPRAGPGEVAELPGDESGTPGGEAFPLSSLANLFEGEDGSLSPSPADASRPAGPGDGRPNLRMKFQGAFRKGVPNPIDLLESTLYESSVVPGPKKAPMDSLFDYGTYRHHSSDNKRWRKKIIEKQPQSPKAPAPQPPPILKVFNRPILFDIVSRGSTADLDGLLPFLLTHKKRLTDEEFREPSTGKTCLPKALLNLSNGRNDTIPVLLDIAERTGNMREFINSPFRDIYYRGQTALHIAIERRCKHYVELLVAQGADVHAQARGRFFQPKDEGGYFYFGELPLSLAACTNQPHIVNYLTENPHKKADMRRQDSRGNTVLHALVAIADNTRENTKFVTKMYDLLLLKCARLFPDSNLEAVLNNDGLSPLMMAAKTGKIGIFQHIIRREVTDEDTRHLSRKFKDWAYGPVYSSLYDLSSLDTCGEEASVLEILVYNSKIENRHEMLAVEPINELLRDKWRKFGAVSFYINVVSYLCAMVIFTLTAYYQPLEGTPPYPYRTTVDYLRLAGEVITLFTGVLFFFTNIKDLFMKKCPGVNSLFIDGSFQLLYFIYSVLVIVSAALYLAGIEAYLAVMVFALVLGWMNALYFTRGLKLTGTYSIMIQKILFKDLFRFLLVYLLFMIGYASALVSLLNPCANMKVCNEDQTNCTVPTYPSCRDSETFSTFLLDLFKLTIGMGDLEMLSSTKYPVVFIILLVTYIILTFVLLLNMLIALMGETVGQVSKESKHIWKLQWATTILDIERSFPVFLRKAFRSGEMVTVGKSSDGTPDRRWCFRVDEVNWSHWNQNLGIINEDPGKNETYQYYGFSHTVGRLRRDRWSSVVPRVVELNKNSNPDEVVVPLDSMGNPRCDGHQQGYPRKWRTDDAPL

Regarding `CCCC[C@@H](NC(=O)[C@@H](Cc1cn(C(=O)OC)c2ccccc12)NC(=O)[C@H](CC(C)(C)C)NC(=O)N1[C@H](C)CCC[C@@H]1C)C(=O)O` [BQ788], in experiment [1], the “ET1-augmented UVB-induced Ca++ transients” value is “attenuated”.
In the case of `CC(C)NCCN(C(C)C)S(=O)(=O)c1ccc(Cl)cc1Cl` [RN1734], the “ET1 secretion, supernatant of non-stimulated 1° MK” value in experiment [2] is recorded as “significant down-regulation”. Further, in experiment [3], the “ET1 immunoreactivity in UVB-exposed 1° MK” value (“ET1 immunoreactivity” below) is on record as “significant down-regulation”.
The term IC50 denotes the concentration needed to halve the response being measured. `CCN(CCc1ccc(Nc2nc(-c3cccnc3)cs2)cc1)Cc1ccccc1` [Compound 16-18]: the IC50 in experiment [4] (N2a cells, rat TRPV4, 5 nM GSK101, averaged peak ΔCa++, read-out: IC50, inhibition of TRPV4-mediated Ca++ influx) is 810 nM and 590 nM. The “increased potency versus parental compound GSK205” value in experiment [4] (from IC50 values, rat TRPV4 in N2a cells) is recorded as about 5 fold. Moreover, in experiment [4] (inhibitor 5 μM, 5 nM GSK101), the “inhibition of TRPV4-mediated Ca++ influx, first round screening” value is “two most potent”. Moreover, in experiment [5], the “inhibition of TRPV4-mediated calcium influx (peak calcium concentration)” value was “most potent”.
Consider `CCC(=N\O)/C(C)=C/c1ccc(F)cc1` [Compound A967079, reference compound], for which the “reduction of pain behavior in the late neural phase” value in experiment [6] was “more than 50%”.
On to `C=C(C)CCO[P@@](=O)(O)OP(=O)(O)O` [IPP, isopentenyl pyrophosphate], for which the “UVB-evoked Ca++ signal” value in experiment [1] is given as “not inhibited”.
On to `CC(C)C[C@@H]1NC(=O)[C@@H](C(C)C)NC(=O)[C@@H]2CCCN2C(=O)[C@@H](CC(=O)O)NC(=O)[C@@H](Cc2c[nH]c3ccccc23)NC1=O` [BQ123] (cyclo(L[dW][dD]P[dV])), for which the “ET1-augmented UVB-induced Ca++ transients” value in experiment [1] is “attenuated”.
For `COc1ccc2c(c1)CC[C@@H]1[C@@H]2CC[C@]2(C)[C@@H](NCCCCCCN3C(=O)C=CC3=O)CC[C@@H]12` [Compound U73122], the “UVB-evoked Ca++ signal” value in experiment [1] is recorded as “virtually eliminated; also recorded: strongly reduced”. Also, the “ET1 secretion, supernatant of non-stimulated 1° MK” value in experiment [2] is given as “down-regulation”. Besides, the “ET1 immunoreactivity” value in experiment [3] is on record as “significant down-regulation”.
As for “ET1: endothelin-1 peptide, cognate ligand of endothelin receptors”, the “UVB-evoked Ca++ signal” value in experiment [1] was “significant increase”. Also, in experiment [7] (5 nM GSK101, GSK205 20 μM), the “GSK101-evoked Ca++ transient” value was “augmented”. For the same molecule, the “4α-PDD-evoked Ca++ transient” value in experiment [7] (fura-2) was “significant increase”. For the same molecule, the “mechanical withdrawal after footpad injection” value in experiment [8] is recorded as “significant levels of mechanical allodynia”.
Consider `O=C(O)C(Cc1ccc2c(c1)oc1ccccc12)NCP(=O)(O)O` (centres unmarked) [CGS35066], for which the “UVB-evoked Ca++ signal” value in experiment [1] is recorded as “significantly diminished”. Further, the “ET1 secretion, supernatant of non-stimulated 1° MK” value in experiment [2] is “down-regulation”. The “ET1 immunoreactivity” value in experiment [3] was “significant down-regulation”.

These data come from patent US11564911B2, “Small molecule dual-inhibitors of TRPV4 and TRPA1 for sanitizing and anesthetizing” (Duke University, priority 2016, dated 2023).
